# Experimental data: ChEMBL document CHEMBL5727681, “Alkoxy compounds for disease treatment” (2020)
# pIC50: −log10 of the molar value.
# Assay: In Vitro Isomerase Inhibition Assay: Isomerase inhibition reactions were performed essentially as described (Stecher et al., J Biol. Chem. 274:8577-85 (1999).
row,pIC50,SMILES
1,> 7.00,CCCC(CCC)COc1cccc(CCCN)c1
2,> 7.00,NCCCc1cccc(OCC2(O)CCCCC2)c1
3,> 7.00,NCCC(=O)c1cccc(OCC2CCCCCC2)c1
4,> 7.00,CCC(CC)COc1cccc(CCCN)c1
5,> 7.00,NCCOc1cccc(OCC2CCCCCC2)c1
6,> 7.00,NCC(O)Cc1cccc(OCC2CCCCC2)c1 (stereo unspecified)
7,> 7.00,NCCC(=O)c1cccc(OCC2CCCCC2)c1
8,> 7.00,CCCC(O)(CCC)COc1cccc(C(O)CCN)c1 (stereo unspecified)
9,> 7.00,NCCCc1cccc(OCC2CCCCC2)c1
10,> 7.00,NCCOc1cccc(OCC2CCCCC2)c1
11,> 7.00,NCCC(O)c1cccc(OCC2(O)CCCCC2)c1 (stereo unspecified)
